Measured values: patent US11583495B2, “Nasal composition comprising a mucoadhesive polymer” (Northriver Pharm, LLC, priority 2017, dated 2023)

Assay: Drug release through lamb buccal mucosa, flow-through Franz diffusion cell
Conditions: from CARBOPOL ETD 2020 NF (1%) solution containing triamcinolone and phenol
Description: Drug release through lamb buccal mucosa was evaluated via a flow-through Franz diffusion cell. Lamb buccal mucosa was clamped into the cell and the receptor chamber was filled with 5 mL of phosphate buffered solution (PBS). CARBOPOL® ETD 2020 NF (1%) solution containing triamcinolone and phenol was applied to the donor chamber. 0.5 mL of PBS was withdrawn from the receptor chamber every 30 minutes and replaced with fresh PBS over the course of 7 hours. Each sample was placed in a cuvette for testing via UV-Vis spectrophotometry. The sample was compared to a set of calibration standards of known concentrations for triamcinolone and phenol, independently. […] The peaks at 225 nm and 270 nm correspond to phenol, and the peak at 240 corresponds with triamcinolone.

SMILES: Oc1ccccc1 [Phenol, phenol]
- Phenol diffusion through the mucosa (UV-Vis, based on calibration curve, over 7 hours): less than 0.025%
- amounts released over time and diffused through the lamb buccal mucosa (sampled every 30 minutes over 7 hours): Increasing amounts
